Tests used:
[1] = test system: H417 small cell lung cancer cell line (intact RB); assay: SCLC cell proliferation, WST-1, RB-intact line; type: cell-based; settings: 100 nM
Experimental: FIG. 8: CDK4/6 inhibition potentiates proliferation of Rb deficient cells. […] Cell proliferation was assessed using WST-1 reagent. Each data point represents the mean of four replicates +/−SEM. CDK4/6 inhibition increases cell proliferation of RB-deficient cell lines.
Primary normal human renal proximal epithelial cells (American Type Culture Collection (ATCC), Manassas, Va., United States of America) were cultured in renal epithelial cell basal media supplemented with renal epithelial cell growth kit according to the manufacturer's recommendations. […] For the γH2AX assay, cells were fixed, permeabilized, and stained with anti-γH2AX as per γH2AX Flow Kit (Millipore, Billerica, Mass., United States of America). γH2AX levels were assessed by flow cytometry. Cell proliferation was assessed by seeding 1×10^3 cells per well in a 96-well tissue culture plate in 100 μL of growth medium. […] At the end of the recovery period, cell number was quantified using CellTiter-Glo® (Promega, Fitchburg, Wis., United States of America) or WST-1 reagent (TaKaRa Bio USA, Madison, Wis., United States of America). Cellular cytotoxicity was assessed using the TOXILIGHT™ Bioassay kit (Lonza, Basel, Switzerland) which measures cytolysis by quantifying the release of Adenylate Kinase into the culture media. […] 100 μL of TOXILIGHT™ reagent is added and incubated for 5 minutes and read in a luminometer at 1 second/well. […]

[2] = test system: C3-TAg mice (RB-deficient breast cancer); assay: C3-Tag transgenic mouse model of basal-like breast cancer, tumor volume; type: in vivo; settings: daily administration, 100 mg/kg daily in standard chow
Experimental: FIG. 9: CDK4/6 inhibition potentiates the efficacy of chemotherapy in mouse model of RB-deficient breast cancer. […] Data are % change in tumor volume and represents the mean of at least 15 animals per cohort +/−SEM
FIG. 10: CDK4/6 inhibition potentiates the efficacy of chemotherapy in mouse model of RB-deficient breast cancer. Mice were treated every 7 days for three weeks with carboplatin (90 mg/kg IP) alone (darkly shaded squares) or in combination with PD0332991 (150 mg/kg PO; lightly shaded squares). Data are % change in tumor volume and represents the mean of at least 15 animals per cohort +/−SEM.
The C3-TAg mice are a model of basal-like breast cancer. […] The MMTV-c-neu model expresses c-neu (the mouse ortholog of human HER2) driven by the mouse mammary tumor virus (MMTV) promoter and is a model of HER2+ breast cancer. When tumors were noted to be ˜0.2 cm^2 in size, animals were treated as described and tumor response assessed by daily caliper measurements.
The effects of CDK4/6 inhibition in the C3-Tag transgenic mouse model of basal-like breast cancer were also evaluated. […] Tumor volume was measured by caliper weekly. Tumor volume was calculated using the following formula: Volume=[(width)^2×length]/2. […] Treatments were administered on days 0, 7 and 14 and tumor volumes were measured weekly, until the mice died or were euthanized due to toxicity or tumor burden.

[3] = test system: germinal center formation; assay: Germinal center formation in mice (Ki67 immunohistochemistry); type: in vivo, mouse; settings: 150 mg/kg by oral gavage
Experimental: Mice were treated with PD0332991 (150 mg/kg by oral gavage). Germinal center formation was assessed by Ki67 immunohistochemistry.
Acute, pharmacologic inhibition of CDK4/6 suppresses lymphocyte proliferation with the most pronounced effect on memory T cell homeostatic proliferation and germinal center formation in mice. To determine whether inhibiting CDK4/6 affects memory cell generation and maintenance, mice were treated with selective CDK4/6 inhibitors, PD 0332991 or an unrelated selective CDK4/6 inhibitor, 2BrIC. 2BrIC was synthesized by OTAVA Chemicals (Kiev, Ukraine) and can be prepared according to methods described in Zhu et al., J. Med. Chem. 46, 2027-2030 (2003).
Cohorts of wild type mice were treated with vehicle or a CDK4/6 inhibitor as in FIG. 11. […] Unstimulated mice were treated for 24 hours with PD0332991 and homeostatic B cell proliferation measured by Ki67 staining after appropriate sorting. Similar results were obtained using BrdU incorporation to measure splenic B cell proliferation. Similar experiments were undertaken in human cells with B cell receptor stimulation as described in FIG. 12.

For `CC(=O)c1c(C)c2cnc(Nc3ccc(N4CCNCC4)cn3)nc2n(C2CCCC2)c1=O` [PD0332991, 6-acetyl-8-cyclopentyl-5-methyl-2-(5-piperazin-1-yl-pyridin-2-ylamino)-8H-pyrido-[2,3-d]-pyrimidin-7-one], the “cell proliferation (WST-1) vs DMSO” value [1] was “decreased”, the “tumor growth at day 21” value [2] was “no effect on tumor growth” and the “germinal center formation (Ki67)” value [3] was “selectively suppresses germinal center formation”.

— patent publication US9616062B2, “Cyclin dependent kinase inhibitors and methods of use” (priority 2009, dated 2017)
